Reference: US6737383B1, “Herbicidal oxadiazolidines” (priority 1999, dated 2004)

How the values were obtained:
[1] = test system: giant foxtail; assay: Test B pre/postemergence giant foxtail; assay type: in vivo, Setaria faberii
Summary of the method: (§1)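 Response is a visual 0-to-10 score relative to untreated plants, where 0 means no effect and 10 means complete control, taken twelve to sixteen days after application. Treatments went onto soil at planting and onto foliage of 1- to 4-leaf plants, using a surfactant-containing non-phytotoxic solvent.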

[2] = test system: cocklebur; assay: Test B pre/postemergence cocklebur; assay type: in vivo, Xanthium strumarium
Summary of the method: as §1

[3] = test system: bedstraw; assay: Test B pre/postemergence bedstraw; assay type: in vivo, Galium aparine; settings: Preemergence
Summary of the method: as §1

[4] = test system: surinam grass; assay: Test B pre/postemergence surinam grass; assay type: in vivo, Brachiaria decumbens
Summary of the method: as §1

[5] = test system: pigweed; assay: Test B pre/postemergence pigweed; assay type: in vivo, Amaranthus retroflexus
Summary of the method: as §1

[6] = test system: soybean; assay: Test B pre/postemergence soybean; assay type: in vivo, Glycine max
Summary of the method: as §1

[7] = test system: wheat; assay: Test B pre/postemergence wheat; assay type: in vivo, Triticum aestivum
Summary of the method: as §1

[8] = test system: corn; assay: Test B pre/postemergence corn; assay type: in vivo, Zea mays
Summary of the method: as §1

[9] = test system: velvetleaf; assay: Test B pre/postemergence velvetleaf; assay type: in vivo, Abutilon theophrasti
Summary of the method: as §1

[10] = test system: rape; assay: Test B pre/postemergence rape; assay type: in vivo, Brassica napus
Summary of the method: as §1

[11] = test system: purple nutsedge; assay: Test B pre/postemergence purple nutsedge; assay type: in vivo, Cyperus rotundus
Summary of the method: as §1

[12] = test system: blackgrass; assay: Test B pre/postemergence blackgrass; assay type: in vivo, Alopecurus myosuroides
Summary of the method: as §1

[13] = test system: morningglory; assay: Test B pre/postemergence morningglory; assay type: in vivo, Ipomoea hederacea
Summary of the method: as §1

[14] = test system: crabgrass; assay: Test B pre/postemergence crabgrass; assay type: in vivo, Digitaria sanguinalis
Summary of the method: as §1

[15] = test system: sugar beet; assay: Test B pre/postemergence sugar beet; assay type: in vivo, Beta vulgaris
Summary of the method: as §1

[16] = test system: wild oat; assay: Test B pre/postemergence wild oat; assay type: in vivo, Avena fatua
Summary of the method: as §1

[17] = Postemergence, Rate 62 g/ha, scale 0 to 10, 0 is no effect, 10 is complete control
[18] = Postemergence, Rate 125 g/ha, scale of 0 to 10 where 0 is no effect and 10 is complete control
[19] = Preemergence, Rate 62 g/ha, scale of 0 to 10 where 0 is no effect and 10 is complete control
[20] = Preemergence, Rate 125 g/ha, scale of 0 to 10 where 0 is no effect and 10 is complete control
[21] = Preemergence, Rate 250 g/ha, scale 0 (no effect) to 10 (complete control)
[22] = Rate 250 g/ha, Postemergence, scale 0 to 10, 0 is no effect, 10 is complete control
[23] = Rate 500 g/ha, Postemergence, scale 0 to 10, 0 is no effect, 10 is complete control
[24] = Preemergence, Rate 500 g/ha, scale of 0 to 10 where 0 is no effect and 10 is complete control

SMILES: CC(C)N(C(=O)n1oc(=O)n(CCCCl)c1=O)c1ccc(F)cc1 [Compound 713]
- Plant response rating, Giant foxtail [1, 17]: 4
- Giant foxtail plant response rating [1, 18]: 9
- Giant foxtail plant response rating [1, 19]: 10
- Plant response rating, Giant foxtail [1, 20]: 10
- Giant foxtail plant response rating [1, 21]: 10
- Giant foxtail plant response rating [1, 22]: 9
- Giant foxtail plant response rating [1, 23]: 9
- Plant response rating, Cocklebur [2, 17]: 1
- Cocklebur plant response rating [2, 18]: 2
- Cocklebur plant response rating [2, 19]: 0
- Plant response rating, Cocklebur [2, 20]: 0
- Cocklebur plant response rating [2, 21]: 0
- Plant response rating, Cocklebur [2, 24]: 0
- Cocklebur plant response rating [2, 22]: 3
- Cocklebur plant response rating [2, 23]: 6
- Bedstraw plant response rating ([3]; Rate 62 g/ha, scale of 0 to 10 where 0 is no effect and 10 is complete control): 0
- Plant response rating, Bedstraw ([3]; Rate 125 g/ha, scale of 0 to 10 where 0 is no effect and 10 is complete control): 0
- Bedstraw plant response rating ([3]; Rate 250 g/ha, scale 0 (no effect) to 10 (complete control)): 2
- Plant response rating, Bedstraw ([3]; Rate 500 g/ha, scale of 0 to 10 where 0 is no effect and 10 is complete control): 6
- Plant response rating, B. signalgrass [4, 17]: 0
- B. signalgrass plant response rating [4, 18]: 3
- B. signalgrass plant response rating [4, 19]: 5
- Plant response rating, B. signalgrass [4, 20]: 7
- B. signalgrass plant response rating [4, 21]: 8
- Plant response rating, B. signalgrass [4, 24]: 9
- B. signalgrass plant response rating [4, 22]: 5
- B. signalgrass plant response rating [4, 23]: 7
- Plant response rating, Redroot pigweed [5, 17]: 2
- Redroot pigweed plant response rating [5, 19]: 6
- Plant response rating, Redroot pigweed [5, 20]: 7
- Redroot pigweed plant response rating [5, 21]: 8
- Redroot pigweed plant response rating [5, 22]: 9
- Redroot pigweed plant response rating [5, 23]: 9
- Plant response rating, Soybean [6, 17]: 3
- Soybean plant response rating [6, 18]: 4
- Soybean plant response rating [6, 19]: 0
- Plant response rating, Soybean [6, 20]: 0
- Soybean plant response rating [6, 21]: 0
- Soybean plant response rating [6, 22]: 5
- Soybean plant response rating [6, 23]: 5
- Plant response rating, Wheat [7, 17]: 0
- Wheat plant response rating [7, 18]: 1
- Wheat plant response rating [7, 19]: 0
- Plant response rating, Wheat [7, 20]: 0
- Wheat plant response rating [7, 21]: 1
- Wheat plant response rating [7, 22]: 2
- Wheat plant response rating [7, 23]: 2
- Plant response rating, Corn [8, 17]: 0
- Corn plant response rating [8, 18]: 0
- Corn plant response rating [8, 19]: 0
- Plant response rating, Corn [8, 20]: 0
- Corn plant response rating [8, 21]: 0
- Corn plant response rating [8, 22]: 0
- Corn plant response rating [8, 23]: 5
- Plant response rating, Velvetleaf [9, 17]: 3
- Velvetleaf plant response rating [9, 18]: 6
- Velvetleaf plant response rating [9, 19]: 2
- Plant response rating, Velvetleaf [9, 20]: 5
- Velvetleaf plant response rating [9, 21]: 5
- Velvetleaf plant response rating [9, 22]: 6
- Velvetleaf plant response rating [9, 23]: 7
- Plant response rating, Rape [10, 17]: 0
- Rape plant response rating [10, 18]: 0
- Rape plant response rating [10, 19]: 4
- Plant response rating, Rape [10, 20]: 4
- Rape plant response rating [10, 21]: 8
- Rape plant response rating [10, 22]: 6
- Rape plant response rating [10, 23]: 6
- Plant response rating, Nutsedge [11, 17]: 0
- Nutsedge plant response rating [11, 18]: 0
- Nutsedge plant response rating [11, 19]: 0
- Plant response rating, Nutsedge [11, 20]: 0
- Nutsedge plant response rating [11, 21]: 0
- Nutsedge plant response rating [11, 22]: 0
- Nutsedge plant response rating [11, 23]: 3
- Plant response rating, Blackgrass [12, 17]: 1
- Blackgrass plant response rating [12, 18]: 3
- Blackgrass plant response rating [12, 19]: 5
- Plant response rating, Blackgrass [12, 20]: 8
- Blackgrass plant response rating [12, 21]: 9
- Plant response rating, Blackgrass [12, 24]: 9
- Blackgrass plant response rating [12, 22]: 7
- Blackgrass plant response rating [12, 23]: 7
- Plant response rating, Morningglory [13, 17]: 2
- Morningglory plant response rating [13, 18]: 3
- Morningglory plant response rating [13, 19]: 0
- Plant response rating, Morningglory [13, 20]: 0
- Morningglory plant response rating [13, 21]: 0
- Morningglory plant response rating [13, 22]: 7
- Morningglory plant response rating [13, 23]: 10
- Plant response rating, Crabgrass [14, 17]: 2
- Crabgrass plant response rating [14, 18]: 9
- Crabgrass plant response rating [14, 19]: 10
- Plant response rating, Crabgrass [14, 20]: 10
- Crabgrass plant response rating [14, 21]: 10
- Crabgrass plant response rating [14, 22]: 9
- Crabgrass plant response rating [14, 23]: 9
- Plant response rating, Sugarbeets [15, 17]: 0
- Sugarbeets plant response rating [15, 18]: 0
- Sugarbeets plant response rating [15, 19]: 3
- Plant response rating, Sugarbeets [15, 20]: 4
- Sugarbeets plant response rating [15, 21]: 7
- Sugarbeets plant response rating [15, 22]: 0
- Sugarbeets plant response rating [15, 23]: 5
- Plant response rating, Wild oats [16, 17]: 0
- Wild oats plant response rating [16, 18]: 0
- Wild oats plant response rating [16, 19]: 2
- Plant response rating, Wild oats [16, 20]: 5
- Wild oats plant response rating [16, 21]: 8
- Wild oats plant response rating [16, 22]: 1
- Wild oats plant response rating [16, 23]: 5
